Test [1] relates to heterotrophic bacteria. The experiment in a line: Cooling tower field trial, Example 2: heterotrophic bacteria plate counts. To be noted: slug dose 3 times/week, 0.5 ppm free Cl2; cooling tower water. The text has this: The effectiveness of DBDMH and of BCDMH in microbiological control in cooling tower water was investigated in comparative tests. The cooling tower consisted of two 500-ton units in a crossflow design. The total system-contained volume was 14,000 gallons, and the tower contained medium efficiency film fill. Water from the tower cooled the coils of two 300-ton air conditioners (chillers). The tower typically operated at a pH of about 9.1 and 4 cycles of concentration. Blowdown was controlled by conductivity. Make-up water consisted of softened city water and which was of good quality. The make-up water was very low in calcium (<10 mg/L) but high in pH (8.7). The alkalinity was 145 mg/L (as CaCO3), and the silica level was 28 mg/L. The tower employed a conventional polyphosphate/molybdate/phosphonate program to provide corrosion and deposit control.
The BCDMH (20 lbs) was introduced to the water using 20-gram, 1-inch tablets charged to a solid halogen feeder (Neptune model BT-40, Neptune Chemical Pump Co., Inc., Lansdale, Pa.). Before each dose, the cooling tower water was sampled and enumerated for heterotrophic bacteria plate counts. Then the tower was slug dosed three times a week with BCDMH. Slug dosing was accomplished by diverting through the feeder containing the tablets a sidestream of the recirculating water for about 1 to 5 hours until a “free chlorine” dose of about 0.5 mg/L (as “free chlorine”) was obtained. The “total chlorine” dose was measured at the same time. After each dose the cooling water was sampled and enumerated for heterotrophic bacteria plate counts. As necessary, the feeder was replenished with more BCDMH tablets.
For example, before the biocide dose the bacteria levels in the bulk water ranged from 10^5 to 10^4 CFUs/mL. After the biocide dose the bacteria levels in the bulk water were reduced to 10^4 to 10^3.
After emptying the feeder of BCDMH tablets, 20 lbs of DBDMH granules was charged into the feeder. Thereupon the same procedure as described above for the BCDMH was carried out except for the fact that is was unnecessary to add any additional DBDMH to the feeder during the 30-day test period. In fact, the total weight of DBDMH consumed during the test was only 7 lbs.

The test system of test [2] is planktonic bacteria. The experiment in a line: Cooling tower field test with floater dispenser, Example 5: planktonic plate counts. Particulars: substantially continuous dosing from floater, 0.15 to 0.2 ppm of free halogen as Br2. On the procedure:
Another field test was carried out in the cooling tower described in Example 2 above. In this field test the cooling tower water was substantially continuously dosed with DBDMH using a Rainbow Lifeguard swimming pool floater having a capacity of about 3 lbs of granules, with the slots in the wide open position. This floater, charged with DBDMH granules, was placed and secured in the tower basin, a very convenient location for addition of the biocide when needed. The floater delivered a dose of “free halogen” to maintain a dosage level in the range of 0.15 to 0.2 ppm of free halogen as Br2.
The granules of DBDMH used in Examples 2-5 have an average size in the range of about 40 U.S. standard mesh size to about ⅜-inch, and an average crush strength of at least 15 pounds per inch of thickness. The combination of the low water solubility of DBDMH coupled with its use in granular form provided a slow but continuous or substantially continuous automatic dosing of the cooling tower water so that a biocidally effective level of free bromine was maintained in the water during the entire test, with relatively infrequent refilling of the dispenser being required.

Molecules are shown by their SMILES.

On to `CC1(C)C(=O)N(Br)C(=O)N1Br` [DBDMH, 1,3-dibromo-5,5-dimethylhydantoin], for which the Bacteria reduction in test [1] is listed as 1.5-2 logs. Also, the planktonic plate counts result in test [2] is “less than 10^4 CFU/mL”.
